{
  "source": "patent US12447213B2",
  "about": "“Modulation of novel immune checkpoint targets” (The Brigham and Women's Hospital, Inc., priority 2016, dated 2025)",
  "key": {"[1]": {"tested_on": "Factor VII", "conditions": "LNP siRNA systems containing these lipids; cited from earlier work"}, "[2]": {"tested_on": "Th17 cells", "assay": "Th17 differentiation in the presence of plate bound integrin αvβ3, cytokine production by FACS", "assay_type": "cell-based, mice", "conditions": "10 ug/ml, BSA as control", "protocol": "FIG. 40. […] Anti-CD3/CD28 beads are used at a ratio of 1:1. Naïve T cells were differentiated into pathogenic or non-pathogenic Th17 cells in vitro with anti-CD3/CD28 Dynabeads (Thermo Fisher Scientific) in the presence of plate bound integrin avb3 (10 ug/ml) or BSA (10 ug/ml) as control. Cytokine production from Th17 cells were measured by FACS on day 4.\nRole of Gp49 Ligand Integrin αvβ3. Integrin αvβ3 is a known ligand of ILT-3 that induces human mast cell degranulation in a Gp49b dependent way. To determine the expression pattern of integrin αvβ3, FACs analysis was performed on various immune cell subsets. CD4^+CD44^loCD62L^hi naïve CD4 T cells were sorted by FACS and cultured in vitro with plate-bound anti-CD3 (2 ug/ml) and anti-CD28 (2 ug/ml) plus the following polarizing cytokines: IL12 (20 ng/ml) for Th1 cells; IL4 (20 ng/ml) for Th2 cells; TGFb (5 ng/ml) for iTreg cells; IL27 (25 ng/ml) for Tr1 cells; TGFb (2 ng/ml) and IL6 (25 ng/ml) for non-pathogenic Th17; IL1 (20 ng/ml), IL6 (25 ng/ml) and IL23 (20 ng/ml) for pathogenic Th17. Expression of αv and β3 integrin were analyzed by FACS and qPCR on day 4. […] Stained cells were analyzed by FACS. […] Stained cells were analyzed by FACS. […] Next, the effect of plate-bound integrin was determined. […] Cytokine production from Th17 cells was measured by FACS on day 4."}, "[3]": {"tested_on": "Th17 cells", "assay": "Binding of recombinant His-tagged integrin αvβ3 to Th17 cells (FACS)", "parameters": "species or system mice", "conditions": "pathogenic and non-pathogenic Th17", "protocol": "(§1) FIG. 38. Integrin avb3 doesn't bind to Th17 cells (in Hank's balanced salt solution ((HBSS)) in the presence of Ca2+ and Mg2+. In vitro differentiated pathogenic and non-pathogenic Th17 cells were incubated with recombinant His-tagged integrin avb3 in HBSS buffer at room temperature for 30 min, washed twice, and then incubated with anti-His antibody for 10 min. Stained cells were analyzed by FACS.\nas §1, with “FIG. 39.” for “FIG. 38.”, “(in phosphate buffered saline ((PBS))” for “(in Hank's balanced salt solution ((HBSS))”, “the absence” for “the presence”, “integrin αvβ3” for “integrin avb3”, “in PBS” for “in HBSS”\nRole of Gp49 Ligand Integrin αvβ3. Integrin αvβ3 is a known ligand of ILT-3 that induces human mast cell degranulation in a Gp49b dependent way. To determine the expression pattern of integrin αvβ3, FACs analysis was performed on various immune cell subsets. […] Expression of αv and β3 integrin were analyzed by FACS and qPCR on day 4. […] Stained cells were analyzed by FACS. […] Stained cells were analyzed by FACS. […] Next, the effect of plate-bound integrin was determined. […] Cytokine production from Th17 cells was measured by FACS on day 4."}, "[4]": {"tested_on": "naïve CD4 T cells", "assay": "Gp49 expression on naïve CD4 T cells cultured with polarizing cytokines (FACS day 3)", "assay_type": "cell-based, mice", "conditions": "plate-bound anti-CD3/anti-CD28 plus polarizing cytokines"}, "[5]": {"tested_on": "naïve CD4+ and CD8+ T cells", "assay": "In vitro T-cell differentiation with IL-27: co-inhibitory receptor expression by real-time PCR and flow cytometry", "assay_type": "cell-based, mice", "source_text": "FIG. 1A-1M. illustrates that IL-27 induces multiple co-inhibitory receptors on CD4^+ and CD8^+ T cells. CD4^+ and CD8^+ tumor-infiltrating lymphocytes (TILs) harvested from wild type (WT) mice bearing B16F10 melanoma tumors. FIG. 1A) Naïve T cells from either WT or IL-27ra deficient mice (IL27ra KO) were stimulated with anti-CD3/CD28 in the presence or absence of IL-27 as indicated. Expression of the indicated co-inhibitory molecules was examined by real-time PCR at 96 hr (CD4) and 72 hr (CD8), n≥3, error bars indicate s.e.m. FIG. 1B) Surface expression of co-inhibitory receptors on T cells stimulated as in (A) was determined by flow cytometry. Representative data are shown. FIG. 1C) Co-expression analysis of co-inhibitory and co-stimulatory receptor mRNA expression as determined by single cell RNAseq (316 and 516 for CD4^+ and CD8^+ respectively). For visualization purposes negative correlation values were set to zero. FIG. 1D) Protein expression by CyTOF for 23,656 CD4^+ and 36,486 CD8^+ TILs. Co-expression was analyzed using Spearman correlation. For visualization purposes negative correlation values were set to zero. FIG. 1E) TILs were harvested from WT and IL27ra KO mice bearing B16F10 melanoma and analyzed using CyTOF. CyTOF data were analyzed using vi-SNE. Polygons indicating clusters 1, 2 (in CD8^+ T cells), 3 and 4 (in CD4^+ T cells) are shown. FIG. 1F) The within groups sum of squared error (SSE) plot. […] FIG. 1G) Gap statistics for estimating the optimal number of clusters using k-means from 1 up to 12 clusters using bootstrapping and first SE max method. […] Visualization of cluster distribution using two-dimensional non-linear embedding of the protein expression profiles by t-SNE. FIG. 1I) CyTOF expression analysis of co-inhibitory and co-stimulatory receptors in TILs harvested from B16F10 melanoma tumor-bearing WT and […] mice from FIG. 1A and FIG. 1J using t-SNE. FIG. 1J) vi-SNE plot highlighting the distribution of CD8^+ TILs from WT (red) and IL27ra KO (blue) mice in clusters 1 and 2 and CD4^+ TILs from WT (red) and IL27ra KO (blue) mice in clusters 3 and 4. Pie charts show the distribution of WT or IL27ra KO CD8^+ and CD4^+ TILs in each cluster. Bar graphs show the mean of signal intensity for PD-1, Tim-3, Lag-3, and TIGIT from WT and IL27ra KO TILs. Error bars are the standard error and p-values for significance are calculated using standard t-test (**p<0.01). FIG. 1K) Expression of PD-1, Tim-3, Lag-3, TIGIT, and IL-10 on CD8^+ TILs obtained from WT and IL27ra KO mice bearing B16F10 melanoma was determined by flow cytometry. Thy1.1-IL-10 reporter mice crossed with WT and IL27ra KO mice were used for IL-10 expression analysis. FIG. 1L, FIG. 1M) Impact of IL-27 signaling on co-inhibitory receptor expression in TILs. Pie charts show the distribution of CD8^+ and CD4^+ TILs from WT and IL27ra KO mice bearing B16F10 melanoma between clusters 1 and 2 for CD8^+ and between clusters 3 and 4 for CD4^+ TILs as determined by k-means clustering of CyTOF protein expression data.\nFlow cytometry: Single cell suspensions were stained with antibodies against CD4 (RM4-5), CD8 (53-6.7), PD-1 (RMP1-30), Lag-3 (C9B7W), TIGIT (GIGD7), and Tim-3 (5D12), Procr (eBio1560), and Pdpn (8.1.1) and were obtained from BioLegend (San Diego, Calif.). Fixable viability dye eF506 (eBioscience) was used to exclude dead cells. For intra-cytoplasmic cytokine staining, cells were stimulated with (PMA) (50 ng/ml, Sigma-Aldrich, MO), ionomycin (1 μg/ml, Sigma-Aldrich, MO). Permeabilized cells were then stained with antibodies against IL-2, TNF-α, IFN-γ or IL-10. All data were collected on a BD LSR II (BD Biosciences) and analyzed with FlowJo software (Tree Star).\nIn vitro T-cell differentiation: CD4^+ and CD8^+ T cells were purified from spleen and lymph nodes using anti-CD4 microbeads (Miltenyi Biotech) then stained in PBS with 0.5% BSA for 15 min on ice with anti-CD4, anti-CD8, anti-CD62L, and anti-CD44 antibodies (all from Biolegend, CA). […]"}, "[6]": {"conditions": "activation of naïve CD4+ and CD8+ T cells in vitro in the presence of IL-27"}, "[7]": {"conditions": "anti-CD3/CD28 in the presence of IL-27, CD4+ and CD8+ T cells"}},
  "data": [
    {"molecule": "1,2-dilinoleyloxy-keto-N,N-dimethyl-3-aminopropane [DLinKDMA]", "values": [
      {"measurement": "gene silencing potency series", "setting": "[1]", "result": "DLinKC2-DMA>DLinKDMA>DLinDMA>>DLinDAP"}
    ]},
    {"molecule": "CCCCC/C=C\\C/C=C\\CCCCCCCC(=O)OCC(CN(C)C)OC(=O)CCCCCCC/C=C\\C/C=C\\CCCCC", "note": "(centres unmarked) [DLinDAP, 1,2-dilineoyl-3-dimethylammonium-propane]", "values": [
      {"measurement": "gene silencing potency series", "setting": "[1]", "result": "DLinKC2-DMA>DLinKDMA>DLinDMA>>DLinDAP"}
    ]},
    {"molecule": "CCCCC/C=C\\C/C=C\\CCCCCCCCOCC(CN(C)C)OCCCCCCCC/C=C\\C/C=C\\CCCCC", "note": "(centres unmarked) [DLinDMA, 1,2-dilinoleyloxy-3-N,N-dimethylaminopropane]", "values": [
      {"measurement": "gene silencing potency series", "setting": "[1]", "result": "DLinKC2-DMA>DLinKDMA>DLinDMA>>DLinDAP"}
    ]},
    {"molecule": "CCCCC/C=C\\C/C=C\\CCCCCCCCC1(CCCCCCCC/C=C\\C/C=C\\CCCCC)OCC(CCN(C)C)O1", "note": "(centres unmarked) [DLinKC2-DMA, 1,2-dilinoleyl-4-(2-dimethylaminoethyl)-[1,3]-dioxolane]", "values": [
      {"measurement": "gene silencing potency series", "setting": "[1]", "result": "DLinKC2-DMA>DLinKDMA>DLinDMA>>DLinDAP"}
    ]},
    {"molecule": "Integrin αvβ3: recombinant His-tagged integrin αvβ3, a known ligand of ILT-3", "values": [
      {"measurement": "effect on Th17 cells (cytokine production, FACS day 4)", "setting": "[2]", "result": "does not appear to have much effect"},
      {"measurement": "binding to Th17 cells", "setting": "[3]; HBSS, in the presence of Ca2+ and Mg2+", "result": "doesn't bind"},
      {"measurement": "binding to Th17 cells", "setting": "[3]; PBS, in the absence of Ca2+ and Mg2+", "result": "doesn't bind"}
    ]},
    {"molecule": "TGFb", "values": [
      {"measurement": "Gp49 expression", "setting": "[4]", "result": "inhibited"}
    ]},
    {"molecule": "IL-27: heterodimeric cytokine, member of the IL-12 family; rmIL-27 (25 ng/ml) (eBioscience) used in vitro (protein) chain 1: FPTDPLSLQELRREFTVSLYLARKLLSEVQGYVHSFAESRLPGVNLDLLPLGYHLPNVSLTFQAWHHLSDSERLCFLATTLRPFPAMLGGLGTQGTWTSSEREQLWAMRLDLRDLHRHLRFQVLAAGFKCSKEEEDKEEEEEEEEEEKKLPLGALGGPNQVSSQVSWPQLLYTYQLLHSLELVLSRAVRDLLLLSLPRRPGSAWDS chain 2: YTETALVALSQPRVQCHASRYPVAVDCSWTPLQAPNSTRSTSFIATYRLGVATQQQSQPCLQRSPQASRCTIPDVHLFSTVPYMLNVTAVHPGGASSSLLAFVAERIIKPDPPEGVRLRTAGQRLQVLWHPPASWPFPDIFSLKYRLRYRRRGASHFRQVGPIEATTFTLRNSKPHAKYCIQVSAQDLTDYGKPSDWSLPGQVESAPHKP", "values": [
      {"measurement": "Pdpn expression by qPCR and flow cytometry", "setting": "[5]; [6]", "result": "induced"},
      {"measurement": "Procr expression by qPCR and flow cytometry", "setting": "[5]; [6]", "result": "induced"},
      {"measurement": "Lag-3 expression, mRNA and protein level", "setting": "[5]; [7]", "result": "induced"},
      {"measurement": "TIGIT expression, mRNA and protein level", "setting": "[5]; [7]", "result": "induced"},
      {"measurement": "Tim-3 (Havcr2) expression, mRNA and protein level", "setting": "[5]; [7]", "result": "induced"},
      {"measurement": "PD-1 (Pdcd1) expression", "setting": "[5]; in vitro, anti-CD3/CD28 in the presence of IL-27", "result": "not affected"}
    ]}
  ]
}
